Laboratory results from patent publication US10358434B2, “2-(3-pyridinyl)-1H-benzimidazole derivative compound and medicament containing same” (NIHON MEDI-PHYSICS CO., LTD., priority 2014, dated 2019).

Assays:
[1] = test system: human adrenal gland section expressing aldosterone-producing adenoma; experiment: In vitro autoradiography using human adrenal adenoma; format: binding
Outline: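 Frozen 7-μm sections of human adrenal bearing aldosterone-producing adenoma were immersed 10 min in radioligand (5-33 kBq/mL) in PBS with 1% fatty-acid-free BSA, washed, then exposed to imaging plates for 16-20 h. Equal-area ROI PSL in adenoma (B2) versus normal cortex (B1) gave B2/B1, corrected for nuclide half-life, added activity and exposure time.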

[2] = In vivo kinetics experiment (radioactivity distribution); set-up: species or system Wistar male rat; settings: rat; for Adrenal gland/blood ratio of radioactivity accumulation / Adrenal gland/fat ratio of radioactivity accumulation / Adrenal gland/kidney ratio of radioactivity accumulation / Adrenal gland/liver ratio of radioactivity accumulation / Adrenal gland/muscle ratio of radioactivity accumulation / Adrenal gland/small intestine ratio of radioactivity accumulation / Radioactivity distribution Adrenal gland / Radioactivity distribution Bladder (including urine) / Radioactivity distribution Blood / Radioactivity distribution Fat / Radioactivity distribution Femur / Radioactivity distribution Heart / Radioactivity distribution Kidney / Radioactivity distribution Large intestine / Radioactivity distribution Liver / Radioactivity distribution Lung / Radioactivity distribution Muscle (lower limbs) / Radioactivity distribution Remaining whole body / Radioactivity distribution Small intestine / Radioactivity distribution Spleen / Radioactivity distribution Stomach / Radioactivity distribution Testis / Radioactivity distribution Whole brain: caudal vein
Outline: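 Male Wistar rats (9 weeks) under isoflurane received approximately 1 to 3.7 MBq radiotracer in saline with 1 w/v % ascorbic acid by tail-vein injection. At 10, 30 and 60 min, rats were exsanguinated; blood, organs and remaining body weighed and counted, giving % ID/g and adrenal-to-tissue ratios.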

[3] = Plasma stability evaluation (TLC analysis); format: in vitro ADME; settings: 37° C., 60 minutes
Method: Evaluation was made using a heparin-treated normal human plasma pool (Kohjin Bio Co., Ltd.). Compounds [^18F] 100, [^18F] 200, [^123I] 400, [^18F] 500, and [^123I] 601 to 610 obtained by the methods shown in Examples 2, 4, 7, 9, 11, 13, 15, 17, 19, 21, 23, 25, 27, and 29 were each added to the aforementioned human plasma (5 mL), and the obtained mixture was then incubated at 37° C. for 60 minutes. Thereafter, the mixture was centrifuged with addition of methanol, so that a deproteinization treatment was carried out. Thereafter, stability was evaluated by TLC analysis. As TLC analysis conditions, the TLC analysis conditions applied upon the above described synthesis of each compound were applied.

Structure (SMILES): Fc1cc2nc(-c3cncc(Cn4ccnc4)c3)n(CCC[18F])c2cc1Cl [[^18F] 500, 6-Chloro-5-fluoro-1-(3-[^18F]fluoropropyl)-2-[5-(imidazol-1-ylmethyl)pyridin-3-yl]benzimidazole]
- accumulation of radioactivity in adrenal gland section (autoradiogram) ([1]; FIGS. 18 to 31): accumulation of radioactivity was selectively observed in a region in which aldosterone-producing adenoma had been pathologically observed
- B2/B1 accumulation ratio ([1]; section of FIG. 17(a)): 5.63
- B2 (PSL value, aldosterone-producing adenoma) ([1]; section of FIG. 17(a), site 71a): 3619
- B1 (PSL value, normal adrenal cortex) ([1]; section of FIG. 17(a), site 72a): 643
- accumulation of radioactivity in adrenal gland vs blood and peripheral tissues ([2]; Tables 9 to 22): high accumulation of radioactivity in adrenal gland was observed, in comparison to in blood and peripheral tissues
- Adrenal gland/blood ratio of radioactivity accumulation ([2]; 10 min after administration): 158.10 ± 31.05
- Adrenal gland/fat ratio of radioactivity accumulation ([2]; 10 min after administration): 210.51 ± 56.26
- Adrenal gland/kidney ratio of radioactivity accumulation ([2]; 10 min after administration): 14.57 ± 3.27
- Adrenal gland/liver ratio of radioactivity accumulation ([2]; 10 min after administration): 3.45 ± 0.50
- Adrenal gland/muscle ratio of radioactivity accumulation ([2]; 10 min after administration): 74.08 ± 27.27
- Adrenal gland/small intestine ratio of radioactivity accumulation ([2]; 10 min after administration): 13.90 ± 1.21
- Radioactivity distribution Adrenal gland ([2]; 10 min after administration): 18.45 ± 3.39 % ID/g
- Radioactivity distribution Bladder (including urine) ([2]; 10 min after administration): 0.86 ± 0.38 % ID/g
- Radioactivity distribution Blood ([2]; 10 min after administration): 0.12 ± 0.02 % ID/g
- Radioactivity distribution Fat ([2]; 10 min after administration): 0.09 ± 0.02 % ID/g
- Radioactivity distribution Femur ([2]; 10 min after administration): 0.25 ± 0.01 % ID/g
- Radioactivity distribution Heart ([2]; 10 min after administration): 0.31 ± 0.03 % ID/g
- Radioactivity distribution Kidney ([2]; 10 min after administration): 1.28 ± 0.08 % ID/g
- Radioactivity distribution Large intestine ([2]; 10 min after administration): 0.23 ± 0.03 % ID/g
- Radioactivity distribution Liver ([2]; 10 min after administration): 5.32 ± 0.21 % ID/g
- Radioactivity distribution Lung ([2]; 10 min after administration): 0.68 ± 0.08 % ID/g
- Radioactivity distribution Muscle (lower limbs) ([2]; 10 min after administration): 0.27 ± 0.08 % ID/g
- Radioactivity distribution Remaining whole body ([2]; 10 min after administration): 0.20 ± 0.02 % ID/g
- Radioactivity distribution Small intestine ([2]; 10 min after administration): 1.32 ± 0.13 % ID/g
- Radioactivity distribution Spleen ([2]; 10 min after administration): 0.93 ± 0.10 % ID/g
- Radioactivity distribution Stomach ([2]; 10 min after administration): 0.86 ± 0.06 % ID/g
- Radioactivity distribution Testis ([2]; 10 min after administration): 0.06 ± 0.01 % ID/g
- Radioactivity distribution Whole brain ([2]; 10 min after administration): 0.02 ± 0.00 % ID/g
- Adrenal gland/blood ratio of radioactivity accumulation ([2]; 30 min after administration): 206.39 ± 28.57
- Adrenal gland/fat ratio of radioactivity accumulation ([2]; 30 min after administration): 295.05 ± 101.53
- Adrenal gland/kidney ratio of radioactivity accumulation ([2]; 30 min after administration): 19.08 ± 3.40
- Adrenal gland/liver ratio of radioactivity accumulation ([2]; 30 min after administration): 4.39 ± 0.61
- Adrenal gland/muscle ratio of radioactivity accumulation ([2]; 30 min after administration): 160.44 ± 36.00
- Adrenal gland/small intestine ratio of radioactivity accumulation ([2]; 30 min after administration): 5.99 ± 1.25
- Radioactivity distribution Adrenal gland ([2]; 30 min after administration): 20.88 ± 2.82 % ID/g
- Radioactivity distribution Bladder (including urine) ([2]; 30 min after administration): 2.02 ± 1.20 % ID/g
- Radioactivity distribution Blood ([2]; 30 min after administration): 0.10 ± 0.01 % ID/g
- Radioactivity distribution Fat ([2]; 30 min after administration): 0.07 ± 0.02 % ID/g
- Radioactivity distribution Femur ([2]; 30 min after administration): 0.14 ± 0.01 % ID/g
- Radioactivity distribution Heart ([2]; 30 min after administration): 0.25 ± 0.02 % ID/g
- Radioactivity distribution Kidney ([2]; 30 min after administration): 1.10 ± 0.08 % ID/g
- Radioactivity distribution Large intestine ([2]; 30 min after administration): 0.28 ± 0.04 % ID/g
- Radioactivity distribution Liver ([2]; 30 min after administration): 4.76 ± 0.15 % ID/g
- Radioactivity distribution Lung ([2]; 30 min after administration): 0.44 ± 0.02 % ID/g
- Radioactivity distribution Muscle (lower limbs) ([2]; 30 min after administration): 0.13 ± 0.01 % ID/g
- Radioactivity distribution Remaining whole body ([2]; 30 min after administration): 0.11 ± 0.01 % ID/g
- Radioactivity distribution Small intestine ([2]; 30 min after administration): 3.54 ± 0.51 % ID/g
- Radioactivity distribution Spleen ([2]; 30 min after administration): 0.41 ± 0.06 % ID/g
- Radioactivity distribution Stomach ([2]; 30 min after administration): 1.11 ± 0.14 % ID/g
- Radioactivity distribution Testis ([2]; 30 min after administration): 0.08 ± 0.01 % ID/g
- Radioactivity distribution Whole brain ([2]; 30 min after administration): 0.01 ± 0.00 % ID/g
- Adrenal gland/blood ratio of radioactivity accumulation ([2]; 60 min after administration): 214.22 ± 75.71
- Adrenal gland/fat ratio of radioactivity accumulation ([2]; 60 min after administration): 371.37 ± 112.38
- Adrenal gland/kidney ratio of radioactivity accumulation ([2]; 60 min after administration): 17.62 ± 3.44
- Adrenal gland/liver ratio of radioactivity accumulation ([2]; 60 min after administration): 7.45 ± 2.80
- Adrenal gland/muscle ratio of radioactivity accumulation ([2]; 60 min after administration): 210.35 ± 70.86
- Adrenal gland/small intestine ratio of radioactivity accumulation ([2]; 60 min after administration): 4.17 ± 1.22
- Radioactivity distribution Adrenal gland ([2]; 60 min after administration): 21.41 ± 4.42 % ID/g
- Radioactivity distribution Bladder (including urine) ([2]; 60 min after administration): 3.87 ± 0.37 % ID/g
- Radioactivity distribution Blood ([2]; 60 min after administration): 0.10 ± 0.02 % ID/g
- Radioactivity distribution Fat ([2]; 60 min after administration): 0.06 ± 0.02 % ID/g
- Radioactivity distribution Femur ([2]; 60 min after administration): 0.12 ± 0.03 % ID/g
- Radioactivity distribution Heart ([2]; 60 min after administration): 0.24 ± 0.04 % ID/g
- Radioactivity distribution Kidney ([2]; 60 min after administration): 1.23 ± 0.22 % ID/g
- Radioactivity distribution Large intestine ([2]; 60 min after administration): 0.41 ± 0.09 % ID/g
- Radioactivity distribution Liver ([2]; 60 min after administration): 3.08 ± 0.99 % ID/g
- Radioactivity distribution Lung ([2]; 60 min after administration): 0.48 ± 0.04 % ID/g
- Radioactivity distribution Muscle (lower limbs) ([2]; 60 min after administration): 0.11 ± 0.03 % ID/g
- Radioactivity distribution Remaining whole body ([2]; 60 min after administration): 0.10 ± 0.02 % ID/g
- Radioactivity distribution Small intestine ([2]; 60 min after administration): 5.36 ± 1.39 % ID/g
- Radioactivity distribution Spleen ([2]; 60 min after administration): 0.32 ± 0.09 % ID/g
- Radioactivity distribution Stomach ([2]; 60 min after administration): 1.66 ± 0.45 % ID/g
- Radioactivity distribution Testis ([2]; 60 min after administration): 0.11 ± 0.03 % ID/g
- Radioactivity distribution Whole brain ([2]; 60 min after administration): 0.02 ± 0.00 % ID/g
- stability in human plasma [3]: hardly metabolized and decomposed in the plasma
- Radiochemical purity after incubation in human plasma ([3]; TLC analysis): 88%
